In ChEMBL document CHEMBL4825664, “17-Hydroxybrevianamide N and Its N1-Methyl Derivative, Quinazolinones from a Soft-Coral-Derived Aspergillus sp. Fungus: 13S Enantiomers as the True Natural Products” (J Nat Prod, 2021):
Active and inactive are the calls of the source.

Tests used:
Assay type in all cases: functional, organism-based
Staphylococcus aureus = assay: Antibacterial activity against Staphylococcus aureus at 20 ug/ml; settings: dose 20.0 µg/ml
Influenza A virus = assay: Antiviral activity against Influenza virus H1N1 at 100 uM
Escherichia coli = assay: Antibacterial activity against Escherichia coli at 20 ug/ml; settings: dose 20.0 µg/ml
Candida albicans = assay: Antifungal activity against Candida albicans at 20 ug/ml; settings: dose 20.0 µg/ml
Pseudomonas aeruginosa = assay: Antibacterial activity against Pseudomonas aeruginosa at 20 ug/ml; settings: dose 20.0 µg/ml

Measured: Activity

CN1C(=O)c2nc3ccccc3c(=O)n2[C@H](Cc2ccccc2O)C1=O
inactive: all assays above

O=C1NC(=O)[C@@H](Cc2ccccc2O)n2c1nc1ccccc1c2=O
inactive: all assays above

CN1C(=O)c2nc3ccccc3c(=O)n2[C@@H](Cc2ccccc2O)C1=O
inactive: all assays above

O=C1NC(=O)[C@H](Cc2ccccc2O)n2c1nc1ccccc1c2=O
inactive: all assays above
